Test results taken from patent US20070128217A1 (priority 2003, published 2007).

Legend:
[1] = tested on: antibodies in sera from SARS patients (sera 1a, 1b, 2, 6, 37, 62, London, SARS-yellow, SARS-green); type: binding, human; set-up: Binding of serum 6 to linear peptides of protein X1 of SARS-CoV Urbani / Binding of serum 37 to linear peptides of protein X1 of SARS-CoV Urbani / Binding of serum 6 to looped/cyclic peptide (PEPSCAN-ELISA) / Binding of serum 37 to looped/cyclic peptide (PEPSCAN-ELISA) / Binding of serum 37 to looped/cyclic peptides of protein X1 of SARS-CoV Urbani / Binding of serum 6 to linear peptides of protein X2 / Binding of serum 37 to linear peptides of protein X2 / Binding of serum 37 to looped/cyclic peptides of protein X2 of SARS-CoV Urbani / Binding of serum 6 to linear peptides of protein M of SARS-CoV Urbani / Binding of serum 37 to linear peptides of protein M of SARS-CoV Urbani / Binding of serum 6 to looped/cyclic peptides of protein M of SARS-CoV Urbani / Binding of serum 37 to looped/cyclic peptides of protein M of SARS-CoV Urbani / Binding of serum 6 to linear peptides of protein X3 of SARS-CoV Urbani / Binding of serum 37 to linear peptides of protein X3 of SARS-CoV Urbani / Binding of serum 37 to looped/cyclic peptides of protein X3 of SARS-CoV Urbani / Binding of serum 6 to linear peptides of protein X4 of SARS-CoV Urbani / Binding of serum 37 to linear peptides of protein X4 of SARS-CoV Urbani / Binding of serum 37 to looped/cyclic peptides of protein X4 of SARS-CoV Urbani / Binding of serum 6 to linear peptides of protein X5 of SARS-CoV Urbani / Binding of serum 37 to linear peptides of protein X5 of SARS-CoV Urbani / Binding of serum 37 to looped/cyclic peptides of protein X5 of SARS-CoV Urbani / Binding of serum 6 to linear peptides of protein N of SARS-CoV Urbani / Binding of serum 37 to linear peptides of protein N of SARS-CoV Urbani / Binding of serum 6 to linear peptide (PEPSCAN-ELISA) / Binding of serum 1a to looped/cyclic peptides of protein N of SARS-CoV Urbani / Binding of serum 1b to looped/cyclic peptides of protein N of SARS-CoV Urbani / Binding of serum 2 to looped/cyclic peptides of protein N of SARS-CoV Urbani / Binding of serum 6 to looped/cyclic peptides of protein N of SARS-CoV Urbani / Binding of serum 37 to looped/cyclic peptides of protein N of SARS-CoV Urbani / Binding of serum 62 to looped/cyclic peptides of protein N of SARS-CoV Urbani / Binding of serum London to looped/cyclic peptides of protein N of SARS-CoV Urbani / Binding of serum SARS-green to looped/cyclic peptides of protein N of SARS-CoV Urbani: unit not given here
[2] = tested on: control sera (pooled serum of ten healthy LUMC hospital workers; commercial negative donor pooled serum from the Dutch bloodbank); type: binding, human; set-up: Binding of Control serum LUMC to linear peptides / Binding of Control serum Blood-bank to linear peptides / Binding of Control serum LUMC to looped peptides / Binding of Control Serum Blood-Bank to Looped peptides / Binding of Control serum LUMC to linear peptides of the protein M of SARS-CoV Urbani / Binding of Control serum Blood-bank to linear peptides of the protein M of SARS-CoV Urbani / Binding of Control serum LUMC to looped peptides of the protein M of SARS-CoV Urbani / Binding of Control Serum Blood-Bank to Looped peptides of the protein M of SARS-CoV Urbani: unit not given here
[3] = tested on: rabbit serum obtained by immunizing a rabbit with the SARS-CoV strain Frankfurt 1; type: binding; set-up: Binding of a rabbit serum to linear peptides / Binding of a rabbit serum to looped peptides / Rabbit serum linear peptides / Rabbit serum looped peptides / Binding of a rabbit serum to linear peptides of protein N of SARS-CoV Urbani (Rabbit serum linear peptides) / Binding of a rabbit serum to looped/cyclic peptides of protein N of SARS-CoV Urbani (Rabbit serum looped peptides): unit not given here

## ICNLLLLFVTIYSHL
[1]
  Binding of serum 1a to linear peptides of protein X1 of SARS-CoV Urbani: 0.6
  Binding of serum 1a to looped/cyclic peptide (PEPSCAN-ELISA): 0.4
  Binding of serum 1b to linear peptides of protein X1 of SARS-CoV Urbani: 0.6
  Binding of serum 1b to looped/cyclic peptide (PEPSCAN-ELISA): 0.3
  Binding of serum 2 to linear peptides of protein X1 of SARS-CoV Urbani: 0.5
  Binding of serum 2 to looped/cyclic peptide (PEPSCAN-ELISA): 0.4
  Binding of serum 6 to linear peptides of protein X1 of SARS-CoV Urbani: 0.4
  Binding of serum 6 to looped/cyclic peptide (PEPSCAN-ELISA): 0.2
  Binding of serum 37 to linear peptides of protein X1 of SARS-CoV Urbani: 0.6
  Binding of serum 37 to looped/cyclic peptide (PEPSCAN-ELISA): 0.4
  Binding of serum 62 to linear peptides of protein X1 of SARS-CoV Urbani: 0.5
  Binding of serum 62 to looped/cyclic peptide (PEPSCAN-ELISA): 0.5
  Binding of serum London to linear peptides of protein X1 of SARS-CoV Urbani: 0.2
  Binding of serum London to looped/cyclic peptide (PEPSCAN-ELISA): 0.2
  Binding of serum SARS-green to linear peptides of protein X1 of SARS-CoV Urbani: 0.3
  Binding of serum SARS-green to looped/cyclic peptide (PEPSCAN-ELISA): 0.2
  Binding of serum SARS-yellow to linear peptides of protein X1 of SARS-CoV Urbani: 0.4
  Binding of serum SARS-yellow to looped/cyclic peptide (PEPSCAN-ELISA): 0.4
[2]
  Binding of Control Serum Blood-Bank to Looped peptides: 0.5
  Binding of Control serum Blood-bank to linear peptides: 0.5
  Binding of Control serum LUMC to linear peptides: 0.5
  Binding of Control serum LUMC to looped peptides: 0.4
[3]
  Binding of a rabbit serum to linear peptides: 0.2
  Binding of a rabbit serum to looped peptides: 0.5

## IKLVFLWLLWPVTLA
[1]
  Binding of serum 1a to linear peptides of protein M of SARS-CoV Urbani: 0.7
  Binding of serum 1a to looped/cyclic peptides of protein M of SARS-CoV Urbani: 0.7
  Binding of serum 1b to linear peptides of protein M of SARS-CoV Urbani: 0.5
  Binding of serum 1b to looped/cyclic peptides of protein M of SARS-CoV Urbani: 0.8
  Binding of serum 2 to linear peptides of protein M of SARS-CoV Urbani: 0.7
  Binding of serum 2 to looped/cyclic peptides of protein M of SARS-CoV Urbani: 0.6
  Binding of serum 6 to linear peptides of protein M of SARS-CoV Urbani: 0.5
  Binding of serum 6 to looped/cyclic peptides of protein M of SARS-CoV Urbani: 0.9
  Binding of serum 37 to linear peptides of protein M of SARS-CoV Urbani: 0.6
  Binding of serum 37 to looped/cyclic peptides of protein M of SARS-CoV Urbani: 0.8
  Binding of serum 62 to linear peptides of protein M of SARS-CoV Urbani: 0.7
  Binding of serum 62 to looped/cyclic peptides of protein M of SARS-CoV Urbani: 0.8
  Binding of serum London to linear peptides of protein M of SARS-CoV Urbani: 0.6
  Binding of serum London to looped/cyclic peptides of protein M of SARS-CoV Urbani: 0.3
  Binding of serum SARS-green to linear peptides of protein M of SARS-CoV Urbani: 0.3
  Binding of serum SARS-green to looped/cyclic peptides of protein M of SARS-CoV Urbani: 0.3
  Binding of serum SARS-yellow to linear peptides of protein M of SARS-CoV Urbani: 0.1
  Binding of serum SARS-yellow to looped/cyclic peptides of protein M of SARS-CoV Urbani: 0.5
[2]
  Binding of Control Serum Blood-Bank to Looped peptides of the protein M of SARS-CoV Urbani: 0.9
  Binding of Control serum Blood-bank to linear peptides of the protein M of SARS-CoV Urbani: 0.7
  Binding of Control serum LUMC to linear peptides of the protein M of SARS-CoV Urbani: 0.4
  Binding of Control serum LUMC to looped peptides of the protein M of SARS-CoV Urbani: 0.7
[3]
  Rabbit serum linear peptides: 0.3
  Rabbit serum looped peptides: 0.0

## LEQWNLVIGFLFLAW
[1]
  Binding of serum 1a to linear peptides of protein M of SARS-CoV Urbani: 0.6
  Binding of serum 1a to looped/cyclic peptides of protein M of SARS-CoV Urbani: 0.6
  Binding of serum 1b to linear peptides of protein M of SARS-CoV Urbani: 0.4
  Binding of serum 1b to looped/cyclic peptides of protein M of SARS-CoV Urbani: 0.3
  Binding of serum 2 to linear peptides of protein M of SARS-CoV Urbani: 0.6
  Binding of serum 2 to looped/cyclic peptides of protein M of SARS-CoV Urbani: 0.7
  Binding of serum 6 to linear peptides of protein M of SARS-CoV Urbani: 0.5
  Binding of serum 6 to looped/cyclic peptides of protein M of SARS-CoV Urbani: 0.5
  Binding of serum 37 to linear peptides of protein M of SARS-CoV Urbani: 0.6
  Binding of serum 37 to looped/cyclic peptides of protein M of SARS-CoV Urbani: 0.7
  Binding of serum 62 to linear peptides of protein M of SARS-CoV Urbani: 0.7
  Binding of serum 62 to looped/cyclic peptides of protein M of SARS-CoV Urbani: 0.6
  Binding of serum London to linear peptides of protein M of SARS-CoV Urbani: 0.4
  Binding of serum London to looped/cyclic peptides of protein M of SARS-CoV Urbani: 0.2
  Binding of serum SARS-green to linear peptides of protein M of SARS-CoV Urbani: 0.3
  Binding of serum SARS-green to looped/cyclic peptides of protein M of SARS-CoV Urbani: 0.3
  Binding of serum SARS-yellow to linear peptides of protein M of SARS-CoV Urbani: 0.1
  Binding of serum SARS-yellow to looped/cyclic peptides of protein M of SARS-CoV Urbani: 0.6
[2]
  Binding of Control Serum Blood-Bank to Looped peptides of the protein M of SARS-CoV Urbani: 0.6
  Binding of Control serum Blood-bank to linear peptides of the protein M of SARS-CoV Urbani: 0.6
  Binding of Control serum LUMC to linear peptides of the protein M of SARS-CoV Urbani: 0.3
  Binding of Control serum LUMC to looped peptides of the protein M of SARS-CoV Urbani: 0.5
[3]
  Rabbit serum linear peptides: 0.2
  Rabbit serum looped peptides: 0.4

## AWIMLLQFAYSNRNR
[1]
  Binding of serum 1a to linear peptides of protein M of SARS-CoV Urbani: 0.7
  Binding of serum 1a to looped/cyclic peptides of protein M of SARS-CoV Urbani: 0.7
  Binding of serum 1b to linear peptides of protein M of SARS-CoV Urbani: 0.6
  Binding of serum 1b to looped/cyclic peptides of protein M of SARS-CoV Urbani: 0.7
  Binding of serum 2 to linear peptides of protein M of SARS-CoV Urbani: 0.5
  Binding of serum 2 to looped/cyclic peptides of protein M of SARS-CoV Urbani: 0.6
  Binding of serum 6 to linear peptides of protein M of SARS-CoV Urbani: 0.5
  Binding of serum 6 to looped/cyclic peptides of protein M of SARS-CoV Urbani: 1.1
  Binding of serum 37 to linear peptides of protein M of SARS-CoV Urbani: 0.4
  Binding of serum 37 to looped/cyclic peptides of protein M of SARS-CoV Urbani: 0.6
  Binding of serum 62 to linear peptides of protein M of SARS-CoV Urbani: 0.4
  Binding of serum 62 to looped/cyclic peptides of protein M of SARS-CoV Urbani: 0.6
  Binding of serum London to linear peptides of protein M of SARS-CoV Urbani: 0.3
  Binding of serum London to looped/cyclic peptides of protein M of SARS-CoV Urbani: 0.6
  Binding of serum SARS-green to linear peptides of protein M of SARS-CoV Urbani: 0.6
  Binding of serum SARS-green to looped/cyclic peptides of protein M of SARS-CoV Urbani: 0.4
  Binding of serum SARS-yellow to linear peptides of protein M of SARS-CoV Urbani: 0.2
  Binding of serum SARS-yellow to looped/cyclic peptides of protein M of SARS-CoV Urbani: 0.7
[2]
  Binding of Control Serum Blood-Bank to Looped peptides of the protein M of SARS-CoV Urbani: 0.7
  Binding of Control serum Blood-bank to linear peptides of the protein M of SARS-CoV Urbani: 0.7
  Binding of Control serum LUMC to linear peptides of the protein M of SARS-CoV Urbani: 0.5
  Binding of Control serum LUMC to looped peptides of the protein M of SARS-CoV Urbani: 0.7
[3]
  Rabbit serum linear peptides: 0.3
  Rabbit serum looped peptides: 0.4

## AISPKFTTSLSLHKL
[1]
  Binding of serum 1a to linear peptides of protein X2: 0.6
  Binding of serum 1a to looped/cyclic peptides of protein X2 of SARS-CoV Urbani: 0.6
  Binding of serum 1b to linear peptides of protein X2: 0.5
  Binding of serum 1b to looped/cyclic peptides of protein X2 of SARS-CoV Urbani: 0.6
  Binding of serum 2 to linear peptides of protein X2: 0.5
  Binding of serum 2 to looped/cyclic peptides of protein X2 of SARS-CoV Urbani: 0.4
  Binding of serum 6 to linear peptides of protein X2: 0.6
  Binding of serum 6 to looped/cyclic peptides of protein X2 of SARS-CoV Urbani: 0.8
  Binding of serum 37 to linear peptides of protein X2: 0.6
  Binding of serum 37 to looped/cyclic peptides of protein X2 of SARS-CoV Urbani: 0.5
  Binding of serum 62 to linear peptides of protein X2: 0.6
  Binding of serum 62 to looped/cyclic peptides of protein X2 of SARS-CoV Urbani: 0.7
  Binding of serum London to linear peptides of protein X2: 0.5
  Binding of serum London to looped/cyclic peptides of protein X2 of SARS-CoV Urbani: 1.1
  Binding of serum SARS-green to linear peptides of protein X2: 0.4
  Binding of serum SARS-green to looped/cyclic peptides of protein X2 of SARS-CoV Urbani: 0.3
  Binding of serum SARS-yellow to linear peptides of protein X2: 0.5
  Binding of serum SARS-yellow to looped/cyclic peptides of protein X2 of SARS-CoV Urbani: 0.4
[2]
  Binding of Control Serum Blood-Bank to Looped peptides: 0.8
  Binding of Control serum Blood-bank to linear peptides: 0.8
  Binding of Control serum LUMC to linear peptides: 0.6
  Binding of Control serum LUMC to looped peptides: 0.6
[3]
  Binding of a rabbit serum to linear peptides: 0.2
  Binding of a rabbit serum to looped peptides: 0.4
